Test results reported in patent publication US5639783A, “Ketone derivatives” (Mitsubishi Chemical Corporation, priority 1991, dated 1997).
Like-named read-outs stand apart in the source and are kept apart here.

Assays:
Type in all cases: biochemical
[1] = molecular target: T1, m-calpain (Rattus norvegicus, UniProt Q07009); test: Thiol protease inhibitory activity, m-calpain purified from rat brain; settings: Table 3
T1 construct: m-calpain was purified from rat brain; from tissue; host or cells: rat brain
T1 sequence (Q07009 20-700 limits assumed): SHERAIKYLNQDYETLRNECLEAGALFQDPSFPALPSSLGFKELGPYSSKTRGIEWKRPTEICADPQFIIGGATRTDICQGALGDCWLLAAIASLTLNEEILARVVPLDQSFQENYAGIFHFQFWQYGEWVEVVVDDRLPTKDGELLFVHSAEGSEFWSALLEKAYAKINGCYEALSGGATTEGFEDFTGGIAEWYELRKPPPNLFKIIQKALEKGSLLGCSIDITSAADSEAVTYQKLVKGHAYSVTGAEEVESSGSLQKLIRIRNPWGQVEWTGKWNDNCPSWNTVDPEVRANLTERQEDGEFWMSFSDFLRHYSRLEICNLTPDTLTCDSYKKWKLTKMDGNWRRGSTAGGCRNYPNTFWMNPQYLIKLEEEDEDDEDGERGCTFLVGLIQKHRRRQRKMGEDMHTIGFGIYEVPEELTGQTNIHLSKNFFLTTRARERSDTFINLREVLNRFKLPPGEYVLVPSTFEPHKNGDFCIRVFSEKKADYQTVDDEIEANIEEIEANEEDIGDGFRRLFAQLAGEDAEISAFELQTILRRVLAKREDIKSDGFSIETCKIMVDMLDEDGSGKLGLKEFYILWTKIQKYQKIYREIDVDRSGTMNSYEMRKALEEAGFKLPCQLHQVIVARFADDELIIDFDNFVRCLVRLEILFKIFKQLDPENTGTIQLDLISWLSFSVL
T1 sequence (Q64537 1-270 partner): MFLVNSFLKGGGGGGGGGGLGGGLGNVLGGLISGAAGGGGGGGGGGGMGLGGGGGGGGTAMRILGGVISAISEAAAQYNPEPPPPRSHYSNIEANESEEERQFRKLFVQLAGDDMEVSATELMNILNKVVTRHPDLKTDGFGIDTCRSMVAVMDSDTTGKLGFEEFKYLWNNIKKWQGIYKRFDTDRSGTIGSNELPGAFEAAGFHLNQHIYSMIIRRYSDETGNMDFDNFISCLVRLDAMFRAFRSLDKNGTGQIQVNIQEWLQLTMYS
How it was run: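 Papain and bovine cathepsin B assayed by a published method; cathepsin L purified from rat kidney and assayed in the same manner as cathepsin B. m-Calpain purified from rat brain and assayed by a separate published procedure.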

[2] = molecular target: T2, cathepsin B (Bos taurus, UniProt P07688); test: Thiol protease inhibitory activity, cathepsin B (C-6286, Sigma); settings: Table 3
T2 construct: purchased Sigma C-6286
Description: (§1) Inhibitory activity against papain (P-3125, Sigma) and cathepsin B (C-6286, Sigma) was assayed according to the method described in a literature [Biochemical Journal, 201, 189 (1982)]. Cathepsin L was purified from rat kidney according to the method in a literature [Journal of Biochemistry, 100, 35 (1986)], and the inhibitory activity against it was assayed in the same manner as described in the above literature for cathepsin B. Furthermore, m-calpain was purified from rat brain according to a known method [Journal of Biological Chemistry, 254, p. 3210 (1984)] and the inhibitory activity against it was assayed by a method described in a literature [Journal of Biological Chemistry, 259, 12489 (1984)]. It is evident from Tables 3 and 4 that the compounds of the present invention have a potent inhibitory activity against thiol proteases such as papain, cathepsin B, cathepsin L or m-calpain.

[3] = molecular target: T3, papain (Carica papaya, UniProt P00784); test: Thiol protease inhibitory activity, papain (P-3125, Sigma)
T3 sequence (P00784 134-345): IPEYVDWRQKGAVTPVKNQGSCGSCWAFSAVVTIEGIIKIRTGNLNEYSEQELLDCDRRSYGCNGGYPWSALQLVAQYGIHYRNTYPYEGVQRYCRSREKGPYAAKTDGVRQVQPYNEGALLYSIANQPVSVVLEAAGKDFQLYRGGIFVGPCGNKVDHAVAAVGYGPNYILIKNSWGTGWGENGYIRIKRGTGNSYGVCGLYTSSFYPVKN
Description: as §1

[4] = molecular target: T4, cathepsin L (Rattus norvegicus, UniProt P07154); test: Thiol protease inhibitory activity, cathepsin L purified from rat kidney; settings: Table 3
T4 construct: Cathepsin L was purified from rat kidney; from tissue; host or cells: rat kidney
T4 sequence (P07154 114-334): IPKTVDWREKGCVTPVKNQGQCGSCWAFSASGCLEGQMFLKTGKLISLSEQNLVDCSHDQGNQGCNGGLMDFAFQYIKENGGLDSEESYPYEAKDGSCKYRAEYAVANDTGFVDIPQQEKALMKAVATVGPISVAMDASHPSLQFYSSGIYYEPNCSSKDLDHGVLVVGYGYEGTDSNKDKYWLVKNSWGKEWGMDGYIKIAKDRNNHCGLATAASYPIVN
Description: as §1

SMILES	IC50 [1]	IC50 [2]	IC50 ([3]; Table 3, read-out: IC50 papain)	IC50 [4]	IC50 [3]
CCCC[C@H](NC(=O)[C@H](CC(C)C)NC(=O)COc1ccccc1F)C(=O)CSCc1ccco1 [36 (No. 85), (s)-3-[(s)-2-(2-fluorophenoxyacetylamino)-4-methylvalerylamino]-1-furfurylthio-2-heptanone]	25 µM	4.9 µM	26 µM	1.3 µM	–
CCCC[C@H](NC(=O)[C@H](CC(C)C)NC(=O)OCc1ccccc1F)C(=O)CSCc1ccco1 [23 (No. 49), (s)-3-[(s)-2-(2-fluorobenzyloxycarbonylamino)-4-methylvalerylamino]-1-furfurylthio-2-heptanone]	6.4 µM	3.7 µM	22 µM	1.1 µM	–
CCCC[C@H](NC(=O)[C@H](CC(C)C)NC(=O)COc1ccc(Cl)cc1C)C(=O)CSCc1ccco1 [46 (No. 100), (s)-3-[(s)-2-(4-chloro-2-methylphenoxyacetylamino)-4-methylvalerylamino]-1-furfurylthio-2-heptanone]	16 µM	0.4 µM	0.39 µM	0.1 µM	–
CCCC[C@H](NC(=O)[C@H](CC(C)C)NC(=O)c1cccc2ccccc12)C(=O)CSCc1ccco1 [83 (No. 161), (s)-1-furfurylthio-3-[(s)-4-methyl-2-(1-naphtoylamino)valerylamino]-2-heptanone]	12 µM	5 µM	47 µM	0.4 µM	–
CC(C)C[C@H](NC(=O)OCc1ccccc1)C(=O)N[C@@H](Cc1ccccc1)C(=O)CN(C)Cc1ccco1 [191 (No. 479), (s)-3-((s)-2-benzyloxycarbonylamino-4-methylvalerylamino)-1-(N-methylfurfurylamino)-4-phenyl-2-butanone]	24 µM	3.5 µM	> 100 µM	9.3 µM	–
CCCC[C@H](NC(=O)[C@H](CC(C)C)NC(=O)c1ccccc1)C(=O)CSCc1ccco1 [54 (No. 116), (s)-3-((s)-2-benzoylamino-4-methylvalerylamino)-1-furfurylthio-2-heptanone]	14 µM	0.88 µM	0.38 µM	0.25 µM	–
CC(C)C[C@H](NC(=O)COc1ccccc1)C(=O)N[C@@H](CCc1ccccc1)C(=O)CSCc1ccco1 [206 (No. 543), (s)-1-furfurylthio-3-((s)-4-methyl-2-phenoxyacetylaminovalerylamino)-5-phenyl-2-pentanone]	15 µM	0.82 µM	–	0.62 µM	6 µM
CC(C)C[C@H](NC(=O)COc1ccccc1Cl)C(=O)N[C@@H](Cc1ccccc1)C(=O)CSCc1ccco1 [167 (No. 354), (s)-3-[(s)-2-(2-chlorophenoxyacetylamino)-4-methylvalerylamino]-1-furfurylthio-4-phenyl-2-butanone]	20 µM	30 µM	> 100 µM	1.4 µM	–
CCCC[C@H](NC(=O)[C@H](CC(C)C)NC(=O)c1ccc2ccccc2c1)C(=O)CSCc1ccco1 [82 (No. 162), (s)-1-furfurylthio-3-[(s)-4-methyl-2-(2-naphtoylamino)valerylamino]-2-heptanone]	20 µM	2.7 µM	34 µM	0.32 µM	–
CCCC[C@H](NC(=O)[C@H](CC(C)C)NC(=O)COc1ccccc1C)C(=O)CSCc1ccco1 [44 (No. 96), (s)-1-furfurylthio-3-[(s)-4-methyl-2-(2-methylphenoxyacetylamino)valerylamino]-2-heptanone]	22 µM	0.17 µM	0.88 µM	0.06 µM	–
CCCC[C@H](NC(=O)[C@H](CC(C)C)NC(=O)OCc1ccccn1)C(=O)CSCc1ccco1 [28 (No. 59), (s)-1-furfurylthio-3-[(s)-4-methyl-2-(2-pyridylmethoxycarbonylamino)valerylamino]-2-heptanone]	11 µM	2.1 µM	3.4 µM	15 µM	–
